Results taken from patent US4661484A, “Pyridazinone derivatives and salts thereof as cardiac stimulants” (Mitsubishi Chemical Industries Limited, priority 1984, dated 1987).

Columns and labels:
papillary muscle of dog = assay: Effect on contraction of an isolated and cross-circulated papillary muscle preparation of the dog; settings: Canis lupus familiaris; dosage 30 μg i.a.; read-out: Contraction of papillary muscle of dog, increase
Method: 1. Effect on contraction of an isolated and cross-circulated papillary muscle preparation of the dog
An isolated and cross-circulated papillary muscle preparation of the dog was prepared by Endo and Hashimoto's method (referred to American Journal of Physiology, 218, 1459-1463, 1970). The effect of the compound was measured by closely intraarterially injecting the compound dissolved in a solvent to the papillary muscle for the purpose of recording its effect on contraction of papillary muscle.

[1] = test system: left atrium of the guinea pig; assay: Effect on contraction of an isolated left atrium of the guinea pig; settings: Cavia porcellus; dosage 10^-5 g/ml; read-out: Contraction of left atrium of guinea pig, increase
Method: 2. Effect on contraction of an isolated left atrium of the guinea pig
A left atrium was isolated from a male guinea pig with 200-300 g of body weight soon after striking on the back of its head. The mitral orifice was fixed to the bottom of an organ bath filled with 30 ml of Krebs-Henseleit solution maintained at 35° C. A gas mixture comprising 95% of O2 and 5% of CO2 was passed through the Krebs-Henseleit solution in the organ bath. Isometric tension was measured by connecting a left auricle of heart and a transducer by a yarn. A resting tension of 0.5 g was given to the atrium, which was then electrically driven with square pulses with duration of 1 msec and voltage of 1.5 times as much as threshold in the rate of 2 Hz via dipolar platinum electrodes.
After stabilizing the atrium for 30 minutes from its preparation, the compound dissolved in a solvent was added to the organ bath to measure its effect.

[2] = test system: myocardial contraction in anesthetized dogs; assay: Effects on myocardial contraction in anesthetized dogs; assay type: in vivo; settings: anesthetized dog
Method: 3. Effects on myocardial contraction in anesthetized dogs
Male and female mongrel dogs with body weight of 8-15 kg were used. A dog was anesthetized by intraveneous injection of 30 mg/kg of sodium pentobarbital and practiced artificial respiration. The dog was thoractomized between fourth and fifth costa which was cut off. The pericardium was incised to expose heart. Blood flow through the aorta, which was measured with an electromagnetic blood flowmeter whose probe was attached to the ascending aorta, was used as an approximate index of cardiac output (CO). Left ventricular pressure (LVP) was measured with a Miller Catheter-tip pressure transducer and the first derivative of the LVP (dP/dt) was measured with a differentiater. Contraction of right ventricular muscle (Cont) was determined with a strain-gauge attached to the wall. Systemic blood pressure was measured from the left femoral artery. Heart rate was measured with electrocardiogram (lead II) and a cardiotachometer. The compound dissolved in a solvent was administered intravenously from a left femoral vein.

[3] = Acute toxicity (LD50), intravenous, male mice; settings: mouse, in vivo, i.v.
Method: Acute toxicity (LD50) for intravenous administration in male mice was determined by the method of […] and Wilcoxon (referred to Journal of Pharmacology and Experimental Therapeutics, 96, 99-113, 1949).

In the case of `O=c1ccc(-c2ccc(Nc3ccncc3)cc2)n[nH]1` [Example I, 6-[4-(4'-pyridyl)aminophenyl]-3(2H)-pyridazinone], the activation at 0.03 mg (papillary muscle of dog) was 12.4%, the activation at 10 µg/mL [1] was 163% and the “CO increase (cardiac output)” value ([2]; 30 μg/kg i.v.) was 13%. The “Cont increase (contraction of right ventricular muscle)” value ([2]; 30 μg/kg i.v.) was 31%, the dP/dt max increase ([2]; 30 μg/kg i.v.) was 64% and the “CO increase (cardiac output)” value ([2]; 100 μg/kg i.v.) was 11%. The “Cont increase (contraction of right ventricular muscle)” value ([2]; 100 μg/kg i.v.) was 39%, the dP/dt max increase ([2]; 100 μg/kg i.v.) was 108% and the LD50 [3] was 103 mg/kg.
